Test results taken from patent US7888042B2, “Methods for identifying insulin mimetics” (Ohio University, priority 2005, dated 2011).

Legend:
GLUT4 = GLUT4 translocation, confocal microscopy; assay type: cell-based; settings: adipocytes, 37° C., 15 min
Description: (A) Glucose transport was measured by determining [^3H]-2-deoxyglucose uptake stimulated by either insulin or α-PGG in 3T3-L1 cells in the presence or absence of HNMPA-(AM)3, an inhibitor of IR tyrosine kinase activity (24); wortmannin, an inhibitor of PI 3-kinase (25), or cytochalasin B, an inhibitor of GLUT4 (26), (n=4, mean±SD). (B) Cells were induced by 20 or 40 μM α-PGG or 100 nM insulin for 15 min. Cell lysates were separated by PAGE and analyzed for phosphorylation of IR (in CHO-IR cells) or Akt (in adipocytes) using antibodies specific to the target proteins. (C) Cells were treated with α-PGG and insulin in a fashion similar to (B) and assayed for their respective PI-3 kinase activity with a radioactive TLC method (27). (D) In similar experiments, intact cells were analyzed by confocal microscopy for translocation of GLUT4 using anti-GLUT4 antibodies.
Protein phosphorylation/activation and GLUT4 translocation. To investigate signal transduction induced by α-PGG, proteins from 3T3-L1 adipocytes or CHO-IR cells (23), which were treated with α-PGG or insulin for 15 min, were isolated, separated by PAGE, blotted on nylon membranes, and analyzed by Western blotting with antibodies against either IR or Akt. […]

[1] = Body weight, food intake and physical activity of treated mice; assay type: in vivo; settings: treated mice vs control mice
Description: Animal studies. Genetically diabetic db/db mice or obese ob/ob mice were purchased from Jackson Lab. Male mice of 2-3 months of age were used. Unless otherwise stated, 10 mice (N=10) were used per group. α-PGG was either orally administered or intraperitoneally (ip) injected in the form of an aqueous solution at 20 mg/kg body weight with a 1-cc sterile plastic syringe. At different times after the α-PGG administration, blood or plasma was collected from the tail vein for measurement of glucose and insulin concentrations using commercial kits. Vehicle (aqueous solution) treated mice were used as controls and were statistically compared with the α-PGG treated mice. All animal studies were conducted in accord with the Ohio University guidelines for the use and care of laboratory animals.

ob/ob mice = experiment: Glucose tolerance test in ob/ob mice, oral dose; assay type: in vivo
Description: Either 6-8 week old male db/db mice or 8-12 week old male ob/ob mice were treated with aqueous solutions of α-PGG by either oral delivery (˜10 μL, A & B) or ip injection (˜50 μL, C, & D). (n=8-10, mean±SD, one-way ANOVA). α-PGG (●); vehicle (∘). α-PGG (20 mg/kg) was orally delivered without glucose to fasting db/db mice (A *, P<0.02; **, P<0.01; ***, P<0.001) or with glucose (0.4 g/kg body weight) to fasting ob/ob mice (B, glucose tolerance test). α-PGG (20 mg/kg) was ip injected into ob/ob mice on day 0 and day 4 (C). A single ip injection (20 mg/kg) of α-PGG was administered to ob/ob mice (D). Glucose (A, B, C) or insulin (D) was determined from sera or plasma isolated from tail vein blood. Animal studies. Genetically diabetic db/db mice or obese ob/ob mice were purchased from Jackson Lab. Male mice of 2-3 months of age were used. Unless otherwise stated, 10 mice (N=10) were used per group. α-PGG was either orally administered or intraperitoneally (ip) injected in the form of an aqueous solution at 20 mg/kg body weight with a 1-cc sterile plastic syringe. At different times after the α-PGG administration, blood or plasma was collected from the tail vein for measurement of glucose and insulin concentrations using commercial kits. Vehicle (aqueous solution) treated mice were used as controls and were statistically compared with the α-PGG treated mice. All animal studies were conducted in accord with the Ohio University guidelines for the use and care of laboratory animals.

In the case of `O=C(OC[C@H]1O[C@H](OC(=O)c2cc(O)c(O)c(O)c2)[C@H](OC(=O)c2cc(O)c(O)c(O)c2)[C@@H](OC(=O)c2cc(O)c(O)c(O)c2)[C@@H]1OC(=O)c1cc(O)c(O)c(O)c1)c1cc(O)c(O)c(O)c1` [α-PGG, alpha 1,2,3,4,6-penta-O-galloyl-D-Glucopyranose], the GLUT4 translocation (GLUT4) is reported as “translocated to the plasma membrane”, the body weight [1] is reported as “No significant changes” and the food intake [1] is reported as “No significant changes”. For the same compound, the physical activity [1] was “No significant changes”, the “duration of blood glucose difference” value (ob/ob mice; oral 20 mg/kg) was “at least 5 h” and the “largest difference in glucose levels vs control group” value (ob/ob mice; oral 20 mg/kg) was “about 20%”. The glucose tolerance (ob/ob mice; single oral dose 20 mg/kg with glucose 0.4 g/kg) was “significantly improved”.
